Holding throughout (experiment): relative viability (nuclei count vs DMSO), 5 days (fraction); higher = more cells survive
Compound in the test “AT-7519 + Vorinostat”: O=C(NC1CCNCC1)c1n[nH]cc1NC(=O)c1c(Cl)cccc1Cl [AT-7519] + O=C(CCCCCCC(=O)Nc1ccccc1)NO [Vorinostat] (partner 1 µM)
The method, boiled down:
(§1)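 Lung cancer cell lines in 1536-well plates got either a single drug or a fixed anchor-drug dose together with five library-drug doses (not always all listed) in √10 steps, by pin tool, on the day after seeding. Nuclei were counted after 5 days, and relative viability is the treated-to-vehicle ratio of nuclei counts. Values are medians of duplicate plates.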

Compound in test [1]: C1=CC2=C(C=C(C(=C2N=C1)O)N=NC3=CC4=C(C=C3)C=C(C=C4)S(=O)(=O)O)S(=O)(=O)O + N=C(N)NC(=N)NCCc1ccccc1 [Phenformin] (partner 250 µM)
The method, boiled down:
as §1

Compound in the test “AT-7519 + Trametinib”: O=C(NC1CCNCC1)c1n[nH]cc1NC(=O)c1c(Cl)cccc1Cl [AT-7519] + CC(=O)Nc1cccc(-n2c(=O)n(C3CC3)c(=O)c3c(Nc4ccc(I)cc4F)n(C)c(=O)c(C)c32)c1 [Trametinib] (partner 0.02 µM)
The essentials: as §1

Compound in the test “AT-7519 + Pictilisib”: O=C(NC1CCNCC1)c1n[nH]cc1NC(=O)c1c(Cl)cccc1Cl [AT-7519] + CS(=O)(=O)N1CCN(Cc2cc3nc(-c4cccc5[nH]ncc45)nc(N4CCOCC4)c3s2)CC1 [Pictilisib] (partner 1 µM)
The essentials: as §1

In the supplement of paper PMC10307832 one finds relative viability data, which are given here for six cell lines.

With PC-14, the relative viability turned out to be 0.838 with AT-7519 + Vorinostat (first compound 0.01 µM); 0.668 in the test with AT-7519 + Vorinostat (first compound 0.03162 µM); 0.621 with AT-7519 + Vorinostat (first compound 0.3162 µM); 0.388 in the test with AT-7519 + Vorinostat (first compound 1 µM); 0.511 in test [1] (first compound 0.08 µM); 0.486 in test [1] (first compound 0.253 µM). Also, the relative viability in test [1] (first compound 0.8 µM) was 0.523; in test [1] (first compound 2.53 µM), 0.642; in test [1] (first compound 8 µM), 0.485; with AT-7519 + Trametinib (first compound 0.01 µM), 0.681; in the test with AT-7519 + Trametinib (first compound 0.03162 µM) it was 0.771; with AT-7519 + Trametinib (first compound 0.3162 µM), 0.545. The relative viability with AT-7519 + Trametinib (first compound 1 µM) turned out to be 0.0618; with AT-7519 + Pictilisib (first compound 0.01 µM) it was 0.66; with AT-7519 + Pictilisib (first compound 0.03162 µM), 0.59; in the test with AT-7519 + Pictilisib (first compound 0.3162 µM), 0.521; in the test with AT-7519 + Pictilisib (first compound 1 µM), 0.258.

On to RERF-LC-KJ, for which the relative viability in the test with AT-7519 + Vorinostat (first compound 0.01 µM) amounted to 0.776; in the test with AT-7519 + Vorinostat (first compound 0.03162 µM), 0.666; with AT-7519 + Vorinostat (first compound 0.3162 µM), 0.631; with AT-7519 + Vorinostat (first compound 1 µM), 0.459; in test [1] (first compound 0.08 µM), 0.439; in test [1] (first compound 0.253 µM) it was 0.39. Also, the relative viability in test [1] (first compound 0.8 µM) is 0.435; in test [1] (first compound 2.53 µM), 0.439; in test [1] (first compound 8 µM) it was 0.43; with AT-7519 + Trametinib (first compound 0.01 µM), 0.865; with AT-7519 + Trametinib (first compound 0.03162 µM), 0.864; with AT-7519 + Trametinib (first compound 0.3162 µM) it was 0.758. Further, the relative viability with AT-7519 + Trametinib (first compound 1 µM) was found to be 0.423; with AT-7519 + Pictilisib (first compound 0.01 µM), 0.514; with AT-7519 + Pictilisib (first compound 0.03162 µM), 0.452; with AT-7519 + Pictilisib (first compound 0.3162 µM) it was 0.594; with AT-7519 + Pictilisib (first compound 1 µM), 0.136.

Regarding SK-LU-1, the relative viability with AT-7519 + Vorinostat (first compound 0.01 µM) amounted to 0.805; in the test with AT-7519 + Vorinostat (first compound 0.03162 µM), 0.725; with AT-7519 + Vorinostat (first compound 0.3162 µM), 0.693; with AT-7519 + Vorinostat (first compound 1 µM), 0.544; in test [1] (first compound 0.08 µM), 0.597; in test [1] (first compound 0.253 µM), 0.493. For the same cell line, the relative viability in test [1] (first compound 0.8 µM) is 0.558; in test [1] (first compound 2.53 µM), 0.572; in test [1] (first compound 8 µM), 0.624; with AT-7519 + Trametinib (first compound 0.01 µM), 0.498; with AT-7519 + Trametinib (first compound 0.03162 µM), 0.46; with AT-7519 + Trametinib (first compound 0.3162 µM), 0.416. The relative viability with AT-7519 + Trametinib (first compound 1 µM) turned out to be 0.309; with AT-7519 + Pictilisib (first compound 0.01 µM), 0.591; in the test with AT-7519 + Pictilisib (first compound 0.03162 µM), 0.54; in the test with AT-7519 + Pictilisib (first compound 0.3162 µM), 0.5; in the test with AT-7519 + Pictilisib (first compound 1 µM), 0.357.

In the case of SK-MES-1, the relative viability in the test with AT-7519 + Vorinostat (first compound 0.01 µM) worked out at 1.2; in the test with AT-7519 + Vorinostat (first compound 0.03162 µM) it was 1.1; with AT-7519 + Vorinostat (first compound 0.3162 µM), 1.05; with AT-7519 + Vorinostat (first compound 1 µM), 0.934; in test [1] (first compound 0.08 µM) it was 0.731; in test [1] (first compound 0.253 µM), 0.674. For the same cell line, the relative viability is 0.672 in test [1] (first compound 0.8 µM); 0.692 in test [1] (first compound 2.53 µM); 0.652 in test [1] (first compound 8 µM); 0.535 with AT-7519 + Trametinib (first compound 0.01 µM); 0.607 in the test with AT-7519 + Trametinib (first compound 0.03162 µM); 0.537 with AT-7519 + Trametinib (first compound 0.3162 µM). For the same cell line, the relative viability was determined as 0.461 in the test with AT-7519 + Trametinib (first compound 1 µM); 0.457 with AT-7519 + Pictilisib (first compound 0.01 µM); 0.272 with AT-7519 + Pictilisib (first compound 0.03162 µM); 0.328 with AT-7519 + Pictilisib (first compound 0.3162 µM); 0.276 in the test with AT-7519 + Pictilisib (first compound 1 µM).

For SW 1573, the relative viability amounted to 0.812 with AT-7519 + Vorinostat (first compound 0.01 µM); 0.696 with AT-7519 + Vorinostat (first compound 0.03162 µM); 0.615 with AT-7519 + Vorinostat (first compound 0.3162 µM); 0.231 with AT-7519 + Vorinostat (first compound 1 µM); 0.406 in test [1] (first compound 0.08 µM); 0.478 in test [1] (first compound 0.253 µM). In addition, the relative viability was 0.418 in test [1] (first compound 0.8 µM); 0.3 in test [1] (first compound 2.53 µM); 0.296 in test [1] (first compound 8 µM); 0.603 with AT-7519 + Trametinib (first compound 0.01 µM); 0.494 with AT-7519 + Trametinib (first compound 0.03162 µM); 0.37 with AT-7519 + Trametinib (first compound 0.3162 µM). Besides, the relative viability in the test with AT-7519 + Trametinib (first compound 1 µM) was 0.109; in the test with AT-7519 + Pictilisib (first compound 0.01 µM), 0.576; with AT-7519 + Pictilisib (first compound 0.03162 µM), 0.463; in the test with AT-7519 + Pictilisib (first compound 0.3162 µM), 0.386; with AT-7519 + Pictilisib (first compound 1 µM), 0.196.

As to UMC-11, the relative viability with AT-7519 + Vorinostat (first compound 0.01 µM) stood at 0.324; with AT-7519 + Vorinostat (first compound 0.03162 µM) it was 0.379; in the test with AT-7519 + Vorinostat (first compound 0.3162 µM), 0.272; with AT-7519 + Vorinostat (first compound 1 µM) it was 0.205; in test [1] (first compound 0.08 µM) it was 0.326; in test [1] (first compound 0.253 µM) it was 0.31. The relative viability in test [1] (first compound 0.8 µM) turned out to be 0.336; in test [1] (first compound 2.53 µM), 0.345; in test [1] (first compound 8 µM) it was 0.338; with AT-7519 + Trametinib (first compound 0.01 µM), 0.593; with AT-7519 + Trametinib (first compound 0.03162 µM), 0.647; with AT-7519 + Trametinib (first compound 0.3162 µM), 0.498. Also, the relative viability stood at 0.384 with AT-7519 + Trametinib (first compound 1 µM); 0.787 in the test with AT-7519 + Pictilisib (first compound 0.01 µM); 0.814 with AT-7519 + Pictilisib (first compound 0.03162 µM); 0.417 with AT-7519 + Pictilisib (first compound 0.3162 µM); 0.249 with AT-7519 + Pictilisib (first compound 1 µM).
